We go through 2 molecules from patent US9101638B2, “Boronic acid derivatives and therapeutic uses thereof” (Rempex Pharmaceuticals, Inc., priority 2013, dated 2015).

Read-outs that look alike come from different tables or passages of the source.

In one assay the test system is KP1005 (CTX-M-14). Nature of the assay: Potentiation of aztreonam, strain KP1005. It is filed as cell-based.
The target in a further assay is CTX-M-14 (Escherichia coli, UniProt Q9L5C7). Briefly: Inhibition of nitrocefin cleavage by purified CTX-M-14. The assay is classed as biochemical. The following applies: nitrocefin reporter substrate, purified enzyme; read-out: Ki (CTX-M-14, NCF). Summed up:
(§1)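 10 min RT preincubation, enzyme with inhibitor series in reaction buffer. Substrate nitrocefin; kinetic read 490 nm, 10 sec intervals, 10 min total.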

The test system of a further assay is PAM1154/KPC-2. Briefly: Biapenem potentiation in PAM1154/KPC-2 (MexAB-OprM lacking). It is filed as cell-based, Pseudomonas aeruginosa. On the procedure:
(§2) Efflux of BLIs from Pseudomonas aeruginosa by the MexAB-OprM efflux pump was also evaluated. […] Due to expression of KPC-2 both strains became resistant to biapenem. […] Potency of BLIs to potentiate biapenem in these strains was determined. […] The ratio of MPC64 values for each BLI in PAM1032/KPC-2 (efflux proficient) and PAM1154/KPC-2 (efflux deficient) was determined to generate the Efflux Index (EI).

A further assay deals with P99 (Enterobacter cloacae, UniProt P05364). Briefly: Inhibition of nitrocefin cleavage by purified P99. The assay is classed as biochemical. The settings on record: nitrocefin reporter substrate, purified enzyme; read-out: Ki (P99, NCF). On the procedure:
(§3) Purified enzymes were mixed with various concentrations of inhibitors in reaction buffer and incubated for 10 min at room temperature. Nitrocefin was added and substrate cleavage profiles were recorded at 490 nm every 10 sec for 10 min.

A further assay concerns ECL1002. Nature of the assay: Potentiation of aztreonam, strain ECL1002. The assay is classed as cell-based. The following applies: minimum BLI concentration inhibiting growth with 4 μg/mL aztreonam.
Another assay addresses OXA-48 (Klebsiella pneumoniae, UniProt Q6XEC0). Briefly: Inhibition of nitrocefin cleavage by purified OXA-48. It is filed as biochemical. The settings on record: nitrocefin reporter substrate, purified enzyme; read-out: Ki (OXA-48, NCF). Summed up:
as §1

In assay [1] the test system is ec302 (TEM-10). Briefly: Potentiation of tigemonam, strain ec302. The assay is classed as cell-based.
Another assay deals with CMY-2 (Klebsiella pneumoniae, UniProt Q48434). Briefly: Inhibition of nitrocefin cleavage by purified CMY-2. The assay is classed as biochemical. The settings on record: nitrocefin reporter substrate, purified enzyme; read-out: Ki (CMY-2, NCF). As for the experimental part: as §3
The test system of assay [2] is ec308 (SHV-5). Briefly: Potentiation of aztreonam, strain ec308. It is filed as cell-based. The following applies: minimum BLI concentration inhibiting growth with 4 μg/mL aztreonam.
In another assay the target is SHV-12 (Klebsiella pneumoniae, UniProt P0AD64, E235K/G234S/L31Q). Nature of the assay: Inhibition of nitrocefin cleavage by purified SHV-12. It is filed as biochemical. The settings on record: nitrocefin reporter substrate, purified enzyme; read-out: Ki (SHV-12, NCF). Summed up:
as §1

A further assay deals with KP1004 (K-2). Nature of the assay: Potentiation of aztreonam, strain KP1004. The settings on record: minimum BLI concentration inhibiting growth with 4 μg/mL aztreonam. The assay is classed as cell-based.
The test system of assay [3] is EC1010 (CMY-6). It is filed as cell-based.
For assay [4], the system named is ec302 (TEM-10). Nature of the assay: Potentiation of aztreonam, strain ec302. The assay is classed as cell-based.
The subject of another assay is PAM1032/KPC-2. Briefly: Biapenem potentiation in PAM1032/KPC-2 (MexAB-OprM overexpressed). It is filed as cell-based, Pseudomonas aeruginosa. As for the experimental part: as §2
The subject of assay [5] is KP1009 (CTX-M-15). Nature of the assay: Potentiation of tigemonam, strain KP1009. The following applies: minimum BLI concentration inhibiting growth with 4 μg/mL tigemonam.
For assay [6], the system named is ec308 (SHV-5). Briefly: Potentiation of tigemonam, strain ec308. The assay is classed as cell-based. The following applies: minimum BLI concentration inhibiting growth with 4 μg/mL tigemonam.
The test system of assay [7] is EC1010 (CMY-6). Nature of the assay: Potentiation of aztreonam, strain EC1010. It is filed as cell-based.
The subject of assay [8] is KP1009 (CTX-M-15). Briefly: Potentiation of aztreonam, strain KP1009. It is filed as cell-based.

Chain of SHV-12 (P0AD64 22-286 L31Q/G234S/E235K): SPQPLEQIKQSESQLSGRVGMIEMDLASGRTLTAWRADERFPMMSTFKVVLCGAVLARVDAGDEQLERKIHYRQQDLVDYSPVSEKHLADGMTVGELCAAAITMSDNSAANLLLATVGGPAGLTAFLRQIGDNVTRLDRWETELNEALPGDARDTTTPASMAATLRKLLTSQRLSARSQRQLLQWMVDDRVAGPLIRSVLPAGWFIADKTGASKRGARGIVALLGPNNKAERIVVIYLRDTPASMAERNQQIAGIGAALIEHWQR
Chain of P99 (P05364 21-381): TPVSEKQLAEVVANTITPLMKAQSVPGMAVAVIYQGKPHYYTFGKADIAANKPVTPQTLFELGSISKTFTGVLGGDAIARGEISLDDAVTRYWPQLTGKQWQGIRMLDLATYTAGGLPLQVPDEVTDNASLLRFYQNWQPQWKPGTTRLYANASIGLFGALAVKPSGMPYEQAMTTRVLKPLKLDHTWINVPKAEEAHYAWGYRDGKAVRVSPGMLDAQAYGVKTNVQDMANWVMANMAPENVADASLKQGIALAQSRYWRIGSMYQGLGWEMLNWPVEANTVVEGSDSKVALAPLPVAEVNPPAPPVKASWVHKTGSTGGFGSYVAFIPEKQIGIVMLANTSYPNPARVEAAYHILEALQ
Chain of CMY-2 (Q48434 21-381, species assumed): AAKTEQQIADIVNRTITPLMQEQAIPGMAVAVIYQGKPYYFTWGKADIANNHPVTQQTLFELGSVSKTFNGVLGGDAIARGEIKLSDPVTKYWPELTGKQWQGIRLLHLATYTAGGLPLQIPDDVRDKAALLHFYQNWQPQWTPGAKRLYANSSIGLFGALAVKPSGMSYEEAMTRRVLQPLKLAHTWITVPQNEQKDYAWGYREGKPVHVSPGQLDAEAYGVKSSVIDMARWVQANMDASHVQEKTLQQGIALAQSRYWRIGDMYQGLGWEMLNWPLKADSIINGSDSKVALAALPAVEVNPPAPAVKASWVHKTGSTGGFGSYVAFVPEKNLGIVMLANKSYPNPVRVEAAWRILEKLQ
Chain of CTX-M-14 (Q9L5C7 entry or part of it): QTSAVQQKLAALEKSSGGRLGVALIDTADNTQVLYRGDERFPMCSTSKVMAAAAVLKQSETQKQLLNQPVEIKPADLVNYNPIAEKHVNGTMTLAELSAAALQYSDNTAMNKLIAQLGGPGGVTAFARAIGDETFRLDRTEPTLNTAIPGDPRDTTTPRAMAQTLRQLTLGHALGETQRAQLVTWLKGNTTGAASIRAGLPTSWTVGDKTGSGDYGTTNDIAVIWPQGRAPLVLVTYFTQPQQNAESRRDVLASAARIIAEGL
Chain of OXA-48 (Q6XEC0 23-265 limits assumed): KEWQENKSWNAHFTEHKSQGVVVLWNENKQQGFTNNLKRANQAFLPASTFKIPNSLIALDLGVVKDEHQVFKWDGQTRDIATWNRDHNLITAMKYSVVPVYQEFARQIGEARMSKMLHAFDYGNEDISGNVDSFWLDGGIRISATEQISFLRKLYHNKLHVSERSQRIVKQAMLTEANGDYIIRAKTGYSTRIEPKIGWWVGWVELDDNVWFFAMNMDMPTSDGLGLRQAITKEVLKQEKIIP

Turning to `NC(=O)CC(=O)N[C@H]1Cc2cccc(C(=O)O)c2OB1O` [Compound 16, (R)-3-(3-amino-3-oxopropanamido)-2-hydroxy-3,4-dihydro-2H-benzo[e][1,2]oxaborinine-8-carboxylic acid], the “AZT MPC4 CTX-M-14 KP1005” value in the assay on KP1005 (CTX-M-14) is listed as “X (key: X = MIC of less than 1 μg/mL; Y = MIC of 1 μg/mL to 10 μg/mL; Z = MIC of greater than 10 μg/mL)”. Further, the Ki (usually a measure of affinity in units of concentration, obtained from inhibition or displacement) on CTX-M-14 was 1 to 10 nM; on P99, 1 to 10 nM; at OXA-48, 1 to 10 nM; on CMY-2, 1 to 10 nM; at SHV-12, under 1 nM. Further, the “PAM1154/KPC-2 Biapenem MPC64” value with PAM1154/KPC-2 was “X (key: X = Less than 10; Y = 10 to 40; Z Greater than 40)”. In addition, the “AZT MPC4 ECL1002” value in the assay on ECL1002 is listed as “X (X = MIC of less than 1 μg/mL)”. For the same molecule, the “TIG MPC4 TEM-10 ec302” value in the assay with ec302 (TEM-10) [1] is given as “Y (key: X = MIC of less than 1 μg/mL; Y = MIC of 1 μg/mL to 10 μg/mL; Z = MIC of greater than 10 μg/mL)”. Moreover, the “AZT MPC4 SHV-5 ec308” value in the assay on ec308 (SHV-5) [2] is listed as “X (X = MIC of less than 1 μg/mL)”. Moreover, the “AZT MPC4 K-2 KP1004” value in the assay with KP1004 (K-2) is listed as “Y (Y = MIC of 1 μg/mL to 10 μg/mL)”. In the assay with EC1010 (CMY-6) [3], the “TIG MPC4 CMY-6 EC1010” value is recorded as “X (key: X = MIC of less than 1 μg/mL; Y = MIC of 1 μg/mL to 10 μg/mL; Z = MIC of greater than 10 μg/mL)”. For the same molecule, the “AZT MPC4 TEM-10 ec302” value with ec302 (TEM-10) [4] is listed as “X (key: X = MIC of less than 1 μg/mL; Y = MIC of 1 μg/mL to 10 μg/mL; Z = MIC of greater than 10 μg/mL)”. The “PAM1032/KPC-2 Biapenem MPC64” value in the assay with PAM1032/KPC-2 is “X (key: X = Less than 10; Y = 10 to 40; Z Greater than 40)”. Also, the “TIG MPC4 CTX-M-15 KP1009” value with KP1009 (CTX-M-15) [5] is reported as “X (X = MIC of less than 1 μg/mL)”. The “TIG MPC4 SHV-5 ec308” value in the assay on ec308 (SHV-5) [6] is reported as “Y (Y = MIC of 1 μg/mL to 10 μg/mL)”.
For the molecule `NC(=O)C(=O)N[C@H]1Cc2cccc(C(=O)O)c2OB1O` [Compound 17, (R)-3-(2-amino-2-oxoacetamido)-2-hydroxy-3,4-dihydro-2H-benzo[e][1,2]oxaborinine-8-carboxylic acid], in the assay on KP1005 (CTX-M-14), the “AZT MPC4 CTX-M-14 KP1005” value was “Y (key: X = MIC of less than 1 μg/mL; Y = MIC of 1 μg/mL to 10 μg/mL; Z = MIC of greater than 10 μg/mL)”. The “AZT MPC4 CMY-6 EC1010” value in the assay on EC1010 (CMY-6) [7] is on record as “Y (key: X = MIC of less than 1 μg/mL; Y = MIC of 1 μg/mL to 10 μg/mL; Z = MIC of greater than 10 μg/mL)”. Also, the Ki on CTX-M-14, at P99, on OXA-48, at CMY-2 and at SHV-12 was 1 to 10 nM in each case. Also, in the assay on PAM1154/KPC-2, the “PAM1154/KPC-2 Biapenem MPC64” value is “X (key: X = Less than 10; Y = 10 to 40; Z Greater than 40)”. Moreover, the “AZT MPC4 ECL1002” value with ECL1002 is recorded as “Y (Y = MIC of 1 μg/mL to 10 μg/mL)”. Moreover, in the assay with ec302 (TEM-10) [1], the “TIG MPC4 TEM-10 ec302” value is “X (key: X = MIC of less than 1 μg/mL; Y = MIC of 1 μg/mL to 10 μg/mL; Z = MIC of greater than 10 μg/mL)”. Further, the “AZT MPC4 SHV-5 ec308” value in the assay with ec308 (SHV-5) [2] is reported as “X (X = MIC of less than 1 μg/mL)”. Moreover, in the assay on KP1004 (K-2), the “AZT MPC4 K-2 KP1004” value is “Y (Y = MIC of 1 μg/mL to 10 μg/mL)”. Besides, the “TIG MPC4 CMY-6 EC1010” value with EC1010 (CMY-6) [3] is “X (key: X = MIC of less than 1 μg/mL; Y = MIC of 1 μg/mL to 10 μg/mL; Z = MIC of greater than 10 μg/mL)”. In the assay on ec302 (TEM-10) [4], the “AZT MPC4 TEM-10 ec302” value was “X (key: X = MIC of less than 1 μg/mL; Y = MIC of 1 μg/mL to 10 μg/mL; Z = MIC of greater than 10 μg/mL)”. For the same molecule, the “PAM1032/KPC-2 Biapenem MPC64” value in the assay on PAM1032/KPC-2 (BLI potency to decrease biapenem MIC 64-fold, 32 to 0.5 μg/ml, efflux proficient strain) is on record as “Z (Z Greater than 40)”. For the same molecule, in the assay with KP1009 (CTX-M-15) [5], the “TIG MPC4 CTX-M-15 KP1009” value is reported as “Y (Y = MIC of 1 μg/mL to 10 μg/mL)”. For the same molecule, in the assay with ec308 (SHV-5) [6], the “TIG MPC4 SHV-5 ec308” value was “Y (Y = MIC of 1 μg/mL to 10 μg/mL)”. In addition, in the assay on KP1009 (CTX-M-15) [8], the “AZT MPC4 CTX-M-15 KP1009” value is “Y (key: X = MIC of less than 1 μg/mL; Y = MIC of 1 μg/mL to 10 μg/mL; Z = MIC of greater than 10 μg/mL)”.
